What was measured:
[1] = test system: Aphis craccivora; experiment: Insecticidal activity against Aphis craccivora (cowpea aphid) infected soybean tender shoots assessed as mortality at 500 mg/L after 24 hr; type: functional
[2] = test system: Aphis craccivora; experiment: Insecticidal activity against Aphis craccivora (cowpea aphid) infected soybean tender shoots after 24 hr; type: functional

CCn1c(NCc2ccc(Cl)nc2)c([N+](=O)[O-])sc1=N
mortality at 500 µg/mL [1]: 50.8%

N=c1sc([N+](=O)[O-])c2n1CCN2Cc1cnc(Cl)s1
LC50 [2]: 17.8 µM | mortality at 500 µg/mL [1]: 100%

N=c1sc([N+](=O)[O-])c2n1CCN2Cc1ccccc1
mortality at 500 µg/mL [1]: 16.2%

N=c1sc([N+](=O)[O-])c2n1CCN2Cc1ccc(C(F)(F)F)nc1
LC50 [2]: 24.5 µM | mortality at 500 µg/mL [1]: 100%

N#CS/C(=C1\NCCN1Cc1cnc(Cl)s1)[N+](=O)[O-]
LC50 [2]: 9.74 µM | mortality at 500 µg/mL [1]: 100%

CCN(Cc1ccc(Cl)nc1)c1c([N+](=O)[O-])sc(=N)n1C
mortality at 500 µg/mL [1]: 57.6%

N#CS/C(=C1\NCCN1Cc1ccc(C(F)(F)F)nc1)[N+](=O)[O-]
LC50 [2]: 18.9 µM | mortality at 500 µg/mL [1]: 100%

N=c1sc([N+](=O)[O-])c2n1CCCN2Cc1ccc(Cl)nc1
LC50 [2]: 22 µM | mortality at 500 µg/mL [1]: 100%

N#CS/C(C#N)=C1\NCCN1Cc1ccc(Cl)nc1
mortality at 500 µg/mL [1]: 34.6%

N#CS/C(=C1\NCCN1Cc1ccc(Cl)nc1)[N+](=O)[O-]
LC50 [2]: 15.7 µM | mortality at 500 µg/mL [1]: 100%

N#CS/C(=C1\Nc2ccccc2N1Cc1ccc(Cl)nc1)[N+](=O)[O-]
mortality at 500 µg/mL [1]: 87.8%

N#CS/C(=C1\NCCCN1Cc1ccc(Cl)nc1)[N+](=O)[O-]
LC50 [2]: 24.9 µM | mortality at 500 µg/mL [1]: 100%

Cn1c(NCc2ccc(Cl)nc2)c([N+](=O)[O-])sc1=N
LC50 [2]: 118 µM | mortality at 500 µg/mL [1]: 100%

N#CS/C(=C1\NCCN1Cc1ccccc1)[N+](=O)[O-]
mortality at 500 µg/mL [1]: 24%

N#Cc1sc(=N)n2c1N(Cc1ccc(Cl)nc1)CC2
mortality at 500 µg/mL [1]: 32.4%

N=c1sc([N+](=O)[O-])c2n1CCN2Cc1ccc(Cl)nc1
LC50 [2]: 26.8 µM | mortality at 500 µg/mL [1]: 100%

N#CS/C(C#N)=C1\NCCN1Cc1cnc(Cl)s1
mortality at 500 µg/mL [1]: 0%

Source: ChEMBL document CHEMBL3045882, “Synthesis and biological activity evaluation of novel β-substituted nitromethylene neonicotinoid analogues” (2012)
